Results on 1 compound are retold here after US20070259327A1, “Cryopreservation medium and cryopreservation method for tissues and cells” (BioVerde. Inc., priority 2006, published 2007).

Molecules are shown by their SMILES.

Assay type in all cases: cell-based, pigs
Experiment [1] relates to Islets. In words: Viability of post-cryopreservation islets assessed using AO/PI. The following applies: for viability assessed using AO/PI: post-cryopreservation. As to the method:
(§1) Islets were isolated from over two years old pigs (n=3). After overnight culture, a known number of islets were incubated for 2 hours in culture medium supplemented with polyphenol (epigallocatechin-gallate (EGCg) with more than 98% purity) at concentrations of 0 (control), 30, 60, 120 ug/ml. Islets were suspended in the same volume of cryopreservation solution containing 12% hydroxyethyl starch (HES) and 10% dimethyl sulfoxide (DMSO) with 8% […] (FBS), and then cryopreserved using a program freezing system^3. After 4 weeks storage in liquid nitrogen, islets were rapidly thawed in a hot water bath. We assessed the results on recovery rate (islet yield after thawing/islet yield before freezing) following cryopreservation and after 48 hours of postcryopreservation tissue culture, viability and functionality.

The subject of experiment [2] is Islets. In words: Islet recovery rate after cryopreservation with polyphenol pre-incubation. To be noted: for islet recovery rate following cryopreservation: 2 hours incubation before freezing, 4 weeks in liquid nitrogen; for islet recovery rate after 48 hours of postcryopreservation tissue culture: 48 hours culture after thawing. On the procedure:
as §1

Experiment [3] relates to Islets. In words: Functionality of post-cryopreservation islets (stimulation index, insulin secretion high/low glucose). The following applies: ratio of insulin secretion high vs low glucose medium. As to the method: as §1, with “functionality. […] The stimulation index represents a ratio of insulin secretion between high-concentration glucose culture medium and low-concentration glucose culture medium.” for “functionality.”

Turning to `O=C(O[C@@H]1Cc2c(O)cc(O)cc2O[C@@H]1c1cc(O)c(O)c(O)c1)c1cc(O)c(O)c(O)c1` [polyphenol, epigallocatechin-gallate], the “viability assessed using AO/PI” value with Islets [1] (30 ug/ml polyphenol) came out at 83.1±1.2; in the experiment with Islets [1] (60 ug/ml polyphenol), 85.9±2.5; in the experiment with Islets [1] (120 ug/ml polyphenol) it was 84.4±1.0. For the same compound, in the experiment with Islets [1] (polyphenol group vs control group, p<0.01), the “viability following cryopreservation, compared with control” value is listed as “significantly higher than the control group”. In addition, the figures for the “islet recovery rate following cryopreservation” value in the experiment on Islets [2] (30 ug/ml polyphenol), with Islets [2] (60 ug/ml polyphenol) and with Islets [2] (120 ug/ml polyphenol) were 66.5±3.3%, 76.9±5.2% and 74.5±2.9%, respectively. Also, the results for the “islet recovery rate after 48 hours of postcryopreservation tissue culture” value in the experiment on Islets [2] (30 ug/ml polyphenol), with Islets [2] (60 ug/ml polyphenol) and in the experiment with Islets [2] (120 ug/ml polyphenol) were 45.3±0.3%, 68.0±3.0% and 54.6±3.3%, respectively. Besides, the “functionality indicated by stimulation index” value came to 1.4±0.2 with Islets [3] (30 ug/ml polyphenol), 1.4±0.3 with Islets [3] (60 ug/ml polyphenol) and 0.9±0.3 with Islets [3] (120 ug/ml polyphenol).
